The nature of series [1]: Water adsorption isotherm (water adsorption level, BELSORP-18 analyzer). Particulars: constant temperature of 25° C.; crystal dried overnight in vacuum at 60° C.; results in FIGS. 3 and 4; hydrochloride. It is filed as physicochemical. The procedure:
Preparation of Water Adsorption Isotherm (Water Adsorption Constant Temperature Line):
After the Type IV crystal recovered above was dried overnight in vacuum at 60° C., the water adsorption level of the crystal was measured at a constant temperature of 25° C. by a fully automatic water adsorption analyzer (BELSORP-18: Nippon Bell K.K.) (see Mitsuiki et al., J. Agric. Food Chem., vol.46, No. 9, pages 3528-3534 (1998)).
The water adsorption level of the Type I crystal was also measured in the same manner as above.

Series [2] in a line: X ray powder diffraction pattern of the crystal under humidity (crystal structure stability). It is filed as physicochemical. Particulars: relative humidity of 80% or less.

In the case of `COc1ccc(/C=C\c2cc(OC)c(OC)c(OC)c2)cc1NC(=O)[C@@H](N)CO.Cl` [Type I crystal, (Z)-N-[2-methoxy-5-[2-(3,4,5-trimethoxyphenyl)vinyl]phenyl]-L-serinamide hydrochloride, reference compound], in series [1], the “water (water vapor) adsorption level versus relative humidity” value is given as “adsorbed water in a degree roughly proportional to relative humidity”. In the case of `COc1ccc(/C=C\c2cc(OC)c(OC)c(OC)c2)cc1NC(=O)[C@@H](N)CO.Cl` [Type IV crystal, (Z)-N-[2-methoxy-5-[2-(3,4,5-trimethoxyphenyl)vinyl]phenyl]-L-serinamide hydrochloride], the “change of X ray powder diffraction pattern / crystal structure” value in series [2] is listed as “did not change”. Moreover, the “water (water vapor) adsorption level versus relative humidity” value in series [1] was “adsorbed much less water up to around a relative humidity of 80%”.

For the origin of these results see patent US20030065035A1, “Novel stilbene derivative crystal and method for producing the same” (AJINOMOTO CO. INC, priority 2000, published 2003).
